Like-named read-outs stand apart in the source and are kept apart here.
How the values were obtained:
[1] = mouse, in vivo, iv; for AUC(0-inf): AUC0-inf; for AUC(0-t): AUC0-t
Protocol: (§1) C57BL/6NRj mice were obtained from Janvier Labs, France. In this study, approximately 8-week-old female mice were used.
(§2) Prior to administration into the lateral tail vein, the body weight of the animals was determined to calculate the individual volume of the injecting compound (5 mL/kg body weight). The injection, as well as the blood sampling, were carried out under short anesthesia (0.7 L/min O2, 1.7 L/min N2O, 2% Isoflurane). Blood was sampled from the retro-orbital plexus using microhematocrit capillary (Ø 0.8 mm) and collected into K3EDTA tubes, at the time points indicated in Table 10.
(§3) The plasma was separated by centrifugation (10,000×g; 10 min; 4° C.), aliquoted into microtubes and stored at −80° C.
(§4) 20 μl of each plasma sample was transferred into PCR tubes. 80 μl IS (internal standard)-solution in acetonitrile+1% FA was added for protein precipitation.
(§5) The sample tubes were sealed with pierceable cap mats and vortexed. After homogenization for 5 min in an ultrasonic bath the samples were centrifuged at 3000 rpm at ambient temperature for 15 min. 1 μl supernatant was injected into the instrument for LC-MS/MS analysis. For LC-MS/MS quantification a ExionLC™ UHPLC coupled to a QTRAP® 6500+ mass spectrometer (Sciex) was used in ESI positive mode. Parameters for mass spectrometry were listed in the tables below, Chromatographic separation was achieved on a ACQUITY UPLC BEH C18 column (Waters, 1.7 μm, 2.1×50 mm).
(§6) Compound concentrations in plasma samples were calculated using a 10-point calibration curve in plasma over a concentration range of 1 to 1000 ng/ml. QC samples of 1, 10, 100, 1000 ng/ml were analyzed before and after each dose group. Samples exceeding the upper limit of quantification (1000 ng/ml) were re-analyzed after 10-fold dilution in blank plasma. All calculations were performed in Sciex OS Version 1.7.0.36606 and MS-EXCEL®.
(§7) Pharmacokinetic parameters were calculated for both compounds using the software Kinetica (version 4.4.1, Thermo Scientific) applying a non-compartmental model (NCA).

[2] = human, plasma
Protocol: (§8) Plasma stability measurements were performed by spiking 5 μl of a 1 mM compound stock solution in DMSO into 495 μl of human or mouse Li-heparin plasma (Innovative Research, Cat. No, IPLALIH5OML (human) and IMS-BC-N (Balb C mouse). The spiked plasma was distributed in 50 μl aliquots into capped PCR tubes for incubation at 37° C. At each time point (0, 2, 6, 24 hours*) 3*aliquots were withdrawn from the incubator. Enzymatic reactions were quenched directly after withdrawal by adding 100 μl of acetonitrile/formic acid=99/1 (v/v). Quenched samples were stored at ambient temperature until the end of the incubation period (24 hrs*). After centrifugation, the supernatant was transferred into fresh vials and analyzed by LC-MS/MS in ESI positive mode (Waters ACQUITY UPLC I-Class System (SM-FTN) with Xevo TQD triple quadrupole mass spectrometer with control software Waters MassLynx). […] Values below the limit of quantification (0.1 μM) and outliers of triplicate results were excluded from further calculations. An exponential regression curve was fitted onto the concentration results. Half-life times were calculated from the slope of the regression curve (t1/2=ln(2)/slope).
(§9) For some samples, as indicated below, the incubation time was 6 hours. The 24 hour data was measured in triplicates whereas the 6 hour data was measured in duplicates.

[3] = mouse, plasma
Protocol: as §8, §9

[4] = mouse, in vivo, iv
Protocol: as §1, §2, §3, §4, §5, §6, §7

[5] = in vivo; conditions: female, C57BL/6NRj, mouse, iv, 10 mg/kg
Protocol: as §1, §2, §3, §4, §5, §6, §7

[6] = in vitro; conditions: human, plasma, Conc. (% of T0)
Protocol: as §8, §9

[7] = in vitro; conditions: Balb C, mouse, plasma
Protocol: as §8, §9

“Ac-PSRLEEELRRRLTE-NH2 [SD14316, Ac-Pro-Ser-Arg-Leu-Glu-Glu-Glu-Leu-Arg-Arg-Arg-Leu-Thr-Glu-NH2]” gave an MRT inf ([1]; 3 mg/kg) of 4 min, an MRT last ([1]; 3 mg/kg) of 3.7 min and a Tmax ([1]; 3 mg/kg) of 5 min. It also gave a clearance ([1]; 3 mg/kg) of 962 mL/min/kg, an AUC(0-inf) ([1]; 3 mg/kg) of about 52 ng·h/mL and an AUC(0-t) ([1]; 3 mg/kg) of 51 ng·h/mL. The C0 ([1]; 3 mg/kg) was about 656 ng/mL, the Cmax ([1]; 3 mg/kg) was 306 ng/mL and the Vd ([1]; 3 mg/kg, Vss) was 3.89 L/kg. The Vd ([1]; 3 mg/kg, Vz) was about 6.3 L/kg, the MRT inf ([1]; 10 mg/kg) was 4.1 min and the MRT last ([1]; 10 mg/kg) was 4 min. It also gave a Tmax ([1]; 10 mg/kg) of 5 min, a clearance ([1]; 10 mg/kg) of 724 mL/min/kg and an AUC(0-inf) ([1]; 10 mg/kg) of 230 ng·h/mL. The AUC(0-t) ([1]; 10 mg/kg) was 230 ng·h/mL, the C0 ([1]; 10 mg/kg) was about 2400 ng/mL and the Cmax ([1]; 10 mg/kg) was 1660 ng/mL. It also gave a Vd ([1]; 10 mg/kg, Vss) of 2.95 L/kg, a Vd ([1]; 10 mg/kg, Vz) of 4.48 L/kg and a half-life ([2]; Flag (half-life, assay exceeded)) of over 360 min. The half-life ([2]; Half-life time) was 646 min, the half-life [3] was 228 min and the AUCextra ([4]; 3 mg/kg) was ~1.5^(1) %. The Vc ([4]; 3 mg/kg) was ~4574^(1) mL/kg, the t1/2effective ([4]; 3 mg/kg) was ~2.6^(1) min and the t1/2initial ([4]; 3 mg/kg) was ~1.6^(1) min. For the same substance, the t1/2terminal ([4]; 3 mg/kg) was ~4.5^(1) min, the λinitial ([4]; 3 mg/kg) was 0.45^(2) min^−1 and the λterminal ([4]; 3 mg/kg) was 0.15^(2) min^−1. The AUCextra ([4]; 10 mg/kg) was 0.2%, the Vc ([4]; 10 mg/kg) was ~4175^(1) mL/kg and the t1/2effective ([4]; 10 mg/kg) was 2.8 min. The t1/2initial ([4]; 10 mg/kg) was ~1.3^(1) min, the λinitial ([4]; 10 mg/kg) was 0.52^(2) min^−1 and the λterminal ([4]; 10 mg/kg) was 0.16 min⁻¹. For the same substance, the half-life [5] was 4.3 min, the remaining at 1 h, 10 µM [6] was 89% and the remaining at 3 h, 10 µM [6] was 78.9%. For the same substance, the remaining at 6 h, 10 µM [6] was 66.9%, the remaining at 2 h, 10 µM [7] was 72.7% and the remaining at 6 h, 10 µM [7] was 33.8%.
